Test results published in PubChem BioAssay (NCI).
Where “and” joins values, the source holds several entries; their conditions need not be identical. Equal entries are not always repeated.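 Compound exposure: 48 hours, 5 concentrations, 96-well plates. GI50 marks 50% less growth. At the TGI there is no net growth.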

Tests used:
Assay in all cases: NCI tumour cell line growth inhibition, 48 h
[1] = tested on: A498 renal
[2] = tested on: CCRF-CEM leukemia
[3] = tested on: MOLT-4 leukemia
[4] = tested on: K-562 leukemia
[5] = tested on: OVCAR-3 ovarian
[6] = tested on: SNB-19 CNS
[7] = tested on: UACC-62 melanoma
[8] = tested on: SK-MEL-2 melanoma

Compound	GI50 [1]	TGI [1]	GI50 [2]	TGI [2]	GI50 [3]	TGI [3]	GI50 [4]	TGI [4]	GI50 [5]	TGI [5]	GI50 [6]	TGI [6]	GI50 [7]	TGI [7]	GI50 [8]	TGI [8]
O=C(CCN1CCCN(c2cnc3ccccc3n2)CC1)c1csc2ccccc12	96.7 µM	> 100 µM	12.5 µM	63.1 µM	26 µM	57.9 µM	20 µM	48.6 µM	18.9 µM	32.9 µM	36.7 µM	> 100 µM	19.7 µM	34.2 µM	27.3 µM	76.5 µM
NC1(C(=O)N[C@@H](CCO)c2ccc(Cl)cc2)CCN(c2ncnc3[nH]ccc23)CC1	0.0709 µM and 0.135 µM	0.522 µM and 0.939 µM	0.499 µM and 1.18 µM	> 58.4 µM	0.505 µM and 0.644 µM	> 10 µM and 21.5 µM	> 5.28 µM and 59.9 µM	> 100 µM	> 2.43 µM and 28 µM	> 100 µM	1.5 µM and 3.82 µM	> 100 µM	0.608 µM and 1.85 µM	4 µM and 23.7 µM	> 4.51 µM and 16.3 µM	> 82.8 µM
CC(C)C1=CC2=C(C(=O)C1=O)C13CCCC(C)(C)C1CC2OC3=O (configuration not stated)	–	52.2 µM	–	33.1 µM	–	32.7 µM	–	19.7 µM	–	38.8 µM	–	> 100 µM	–	27.4 µM	–	47.4 µM
CN(C)C1CN(C(=O)c2cc(-c3ccc4ncnc(N5CCc6cc(F)c(Cl)cc65)c4c3)cnc2N)C1	0.254 µM	0.832 µM	0.583 µM	> 100 µM	–	–	0.86 µM	> 100 µM	0.585 µM	5.2 µM	1.65 µM	> 100 µM	0.43 µM	2.16 µM	1.09 µM	3.77 µM
Nc1n[nH]c2ccc([C@@H]3Nc4ccc5cn[nH]c5c4[C@H]4C5CCC(C5)[C@@H]34)cc12 (some centres not stated)	0.181 µM	0.777 µM	0.343 µM	> 100 µM	0.446 µM	> 100 µM	0.252 µM	> 100 µM	0.346 µM	10.9 µM	0.601 µM	> 100 µM	0.389 µM	34.3 µM	0.621 µM	> 100 µM
c1ccc(CC(Nc2cccnc2)c2ccccc2)cc1 (configuration not stated)	–	> 100 µM	–	46.2 µM	–	47.7 µM	–	> 100 µM	–	34.3 µM	–	> 100 µM	–	36.9 µM	–	36 µM
COc1cc(C(=O)NN=C2c3ccccc3-c3ccccc32)cc(OC)c1OC	2.95 µM	13.9 µM	3.53 µM	> 100 µM	5.12 µM	> 100 µM	0.829 µM	26.2 µM	2.33 µM	10.6 µM	6.56 µM	43.5 µM	3.09 µM	24.8 µM	2.84 µM	12.7 µM
CCCCCCCCCC[C@H](O)[C@H]1CC[C@@H]([C@@H](O)CC[C@H](O)[C@@H]2CCC(CCCCCCC[C@@H](O)CC3=C[C@H](C)OC3=O)O2)O1 (some centres not stated)	–	–	2.08 µM	12.3 µM	–	–	–	19.2 µM	3.29 µM	2.75 µM and 14.2 µM	–	4.71 µM and 19.6 µM	–	3.13 µM	8.82 µM	2.94 µM and 24.6 µM
CO/C(=C1/NC(=O)C(Cc2ccc(O)c(Br)c2)N(C)C(=O)C(C)NC(=O)CCC/C=C(\C)CCC(C)OC1=O)c1ccccc1 (configuration not stated)	0.0174 µM	0.0357 µM	0.0185 µM	0.0805 µM	0.119 µM	> 100 µM	0.335 µM	> 100 µM	< 0.0164 µM	0.0376 µM	0.031 µM	1.96 µM	0.0753 µM	20.4 µM	–	0.0469 µM
COc1cc(N2CCC(N)CC2)ccc1Nc1ncc(Cl)c(-c2c[nH]c3ccccc23)n1	0.123 µM	0.386 µM	2.17 µM	7.15 µM	1.4 µM	4.86 µM	1.58 µM	5.03 µM	1.14 µM	3.71 µM	1.38 µM	4.19 µM	–	–	0.23 µM	0.982 µM
CN(C)c1ccc(/C=c2/c3cc(O)ccc3n3c2cc(-c2ccccc2)[n+]3C)cc1	> 100 µM	> 100 µM	–	4.1 µM	–	–	1.01 µM	–	–	–	0.277 µM	1.7 µM and 1.47 µM	> 100 µM	–	–	2.55 µM
O=c1/c(=C\c2ccc(Br)cc2)sc2n1C(c1ccc(Br)cc1)C1=C(N=2)c2ccc3ccccc3c2OCC1 (configuration not stated)	> 100 µM	> 100 µM	> 100 µM	> 100 µM	> 100 µM	> 100 µM	> 100 µM	> 100 µM	> 100 µM	> 100 µM	> 100 µM	> 100 µM	> 100 µM	> 100 µM	> 100 µM	> 100 µM
COc1ccc(/C=C\c2cc(OC)c(OC)c(OC)c2)c(NS(=O)(=O)c2ccc(F)cc2)c1O	0.0235 µM	0.0966 µM	0.0435 µM	> 100 µM	0.0466 µM	> 100 µM	0.0353 µM	> 76 µM	0.0322 µM	1.41 µM	0.156 µM	> 100 µM	0.0452 µM	> 80.1 µM	0.184 µM	> 100 µM
O=C(NN1C(=O)CSC1c1c(Cl)cccc1Cl)C(O)c1ccccc1 (configuration not stated)	> 100 µM	> 100 µM	43.7 µM	> 100 µM	25 µM	80.7 µM	29.7 µM	76 µM	21.3 µM	76.6 µM	71.6 µM	> 100 µM	7.15 µM	43.5 µM	50.5 µM	> 100 µM
COc1cc2c(cc1OCCCN1CCN(C(=S)SCCC(C#N)(c3ccccc3)c3ccccc3)CC1)N=C[C@@H]1CCCN1C2=O	1 µM	2.32 µM	0.235 µM	0.537 µM	0.375 µM	–	0.573 µM	–	0.488 µM	1.26 µM	2.19 µM	–	1.13 µM	2.38 µM	1.08 µM	2.91 µM
Nc1c(C(=O)Nc2cccc(C(F)(F)F)c2)sc2nc3c(cc12)CCCCCC3	1.39 µM	5.51 µM	5.73 µM	> 100 µM	11.1 µM	35.1 µM	3.65 µM	20 µM	2.17 µM	4.88 µM	3.16 µM	13.1 µM	3.25 µM	21.5 µM	4.35 µM	18.2 µM
